This assay has as its system human erythrocytes. The experiment in a line: Erythrocyte ATP release. The format is cell-based. The method, then: Erythrocyte ATP release was measured in both the absence and presence of (a) the PGI2 agonist, treprostinil in the form of UT-15 or its vehicle, saline, and (b) alone or in combination with the selective PDE5 inhibitor, zapranist (ZAP, 10 μM).

“Also recorded” adds a separate entry of the source.

In the case of `CCCOc1ccccc1-c1nc2nn[nH]c2c(=O)[nH]1` [zapranist], the “potentiation of UT-15-induced increases in ATP release” value (FIG. 2, concentration not printed in legend) is “potentiated”. Further, the “potentiation of UT-15-induced ATP release” value (ZAP 10 μM pretreatment, UT-15 1 uM, P<0.05) is given as “potentiated”.
Regarding `CCCCC[C@H](O)CC[C@@H]1[C@H]2Cc3cccc(OCC(=O)O)c3C[C@H]2C[C@H]1O` [UT-15, treprostinil], the “ATP release from erythrocytes” value (UT-15 30 nM alone, n=7) is listed as “no ATP release was detected”; the “ATP release from erythrocytes” value (UT-15 30 nM, cells pretreated with ZAP 10 μM, n=7) is “induce a response; also recorded: ATP release was stimulated”; the “ATP release from erythrocytes” value (UT-15 100 nM alone, n=7) is reported as “no ATP release was detected”; the “ATP release from erythrocytes” value (UT-15 100 nM, cells pretreated with ZAP 10 μM, n=7) is “induce a response; also recorded: ATP release was stimulated”. Moreover, the “ATP release from erythrocytes compared to controls” value (UT-15 1 uM alone, n=7) is recorded as “increase in ATP release”. Also, the “ATP release from human erythrocytes” value (UT-15 alone at 10 to 100 nM, FIG. 3) is recorded as “does not stimulate ATP release” and the “ATP release from human erythrocytes” value (UT-15 alone, FIG. 2, concentration not printed in legend) is listed as “stimulates increases in ATP release”.

The values are drawn from patent US9387214B2, “Method of identifying therapies for pulmonary hypertension” (United Therapeutics Corporation, priority 2012, dated 2016).
